# In US7795208B2, “Methods of using deacetylase inhibitors to promote cell differentiation and regeneration” (The Salk Institute for Biological Study, priority 2001, dated 2010):
# Several values for one entry are separate records, joined by “and”; a condition that tells them apart may be missing. Identical values can stand only once.
# Legend:
# C2C12 cells = assay: Differentiation and muscle protein expression of C2C12 myoblasts exposed to deacetylase inhibitors (MHC immunofluorescence, Western blot, RT-PCR, FACS); type: cell-based, mouse; conditions: for Nuclei/MHC-Positive Cells (number of nuclei) / percentage of nuclei detected in MHC-positive cells: C2C12, DI 24 hours in GM, then DM without DI, Tr. 1 and Tr. 2; for MHC expression and frequency of MHC-positive multinucleated cells: undifferentiated myoblasts exposed in GM, differentiated in the absence of DI, vs untreated cells
# Protocol: Mouse muscle myoblast C2C12 cells (obtained from the American Type Culture Collection, ATCC CRL-1772) and CC42 cells (from Dr. Kenneth Walsh, Tufts University School of Medicine) were cultured in DMEM supplemented with 20% fetal bovine serum, 2 mM glutamine and 1× kanamycin (growth medium, GM). Cellular differentiation was induced with DMEM supplemented with 2% horse serum and 1× insulin, transferring, selenium (Life Technologies). Human skeletal myocytes (CC-2561) were purchased from Clonetics. Stable C2C12 cell lines with integrated reporters are described in Wu, Z., et al., Mol Cell Biol 20:3951-64 (2000). The MCK-luc, 4RE-luc, MEF2 reporter constructs have been described in Puri, P. L., et al., EMBO Journal 16:369-83 (1997a) and Sartorelli, V., et al., Molecular & Cellular Biology 17:1010-26 (1997). The E2F-luc plasmid is described in Helin, K., et al., Genes Dev 7:1850-61 (1993). The MLC-lacZ-nls plasmid is described in Wu, et al. (2000). Dr. Stuart Schreiber (Harvard University) provided the vector expressing Flag-HDAC1, which is described in Taunton, J., et al., Science 272: 408-11 (1996). Transient transfections were performed using FuGENE 6 transfection reagent (Roche Molecular Biochemicals). Following transfections, luciferase activity was determined using the Dual-Luciferase reporter assay system (Promega) on a microtiter luminescence detection system (MLX, Dynex).
# For immunoblotting, cell extracts were obtained after incubating the cells in standard lysis buffer. Western blots were probed with the following antibodies: anti-MHC (MF-20), anti-myogenin (FD5), and anti-tubulin (E7), obtained from the Developmental Studies Hybridoma Bank, University of Iowa. Primary antibodies were visualized with the ECL cheminoluminescent kit (Amersham). Cells were fixed and stained with anti-MHC MF-20 antibodies. Nuclei were visualized by 4′,6′-[…]-2-phenylindole (DAPI). FITC-conjugated or Texas red-conjugated secondary antibodies were employed to reveal the primary antibodies.
# C2C12 and CC42 cells were exposed to sodium butyrate 5 mM (Sigma), trichostatin A 50 nM (Upstate Biotechnologies), or valproic acid 10 mM (Sigma) for 24 hours in GM (GM regimen). TSA was removed and the cells cultured in DM for 48 hrs before being analyzed. When indicated (DM regimen), the cells were exposed to deacetylase inhibitors when switched from GM to DM and cultured in their presence for 48 hrs.
# Another striking effect induced by DI is their ability to increase the number of nuclei present in MHC positive cells. While approximately 15% of the total nuclei are present in elongated, MHC-positive myotubes not exposed to DI, approximately 75-80% of the total nuclei are detected in hypernucleated MHC-positive myotubes when these have been previously exposed to DI (see FIG. 1D and Table 1). In Table 1, C2C12 cells were either exposed to sodium butyrate, TSA, VPA or left untreated for 24 hours in GM. The medium was replaced with DM without DI, and MHC expression was detected by immunofluorescent staining. Nuclei were visualized with DAPI. The values in parenthesis indicate the percentage of nuclei detected in MHC-positive cells. The values are derived from two independent trials.
# MLC3F-lacZ-nls construct = assay: β-Galactosidase assay of cells transfected with MLC3F-lacZ-nls; type: cell-based, mouse; conditions: transfected cells exposed in GM, then DM 48 hours; vs non-treated cells
# Protocol: FIGS. 4A-C illustrate that embryos exposed to DI display enhanced somitogenesis and increased muscle gene expression. […] Cells were then exposed to TSA (50 nM) in GM and subsequently switched to DM for 48 hours. Cells were stained to detect β-galactosidase activity. FIG. 4B is a picture of E 10.5 embryos derived from MLC1/3F-nLacZ transgenic mice exposed to either TSA or VPA treatment (see Example 1) and stained for 1 hour at 30° C. to detect β-galactosidase activity. […] FIG. 4C is a Western blot of extracts derived from total embryos exposed to either TSA or VPA; MHC is detected.
# Cells transfected with MLC-lacZ-nls were washed twice in PBS, fixed in 4% paraformaldeheyde-PBS for 5 min, washed twice in PBS, and stained for 2-5 hrs with 5 mM potassium ferrycyanide, 5 mM potassium ferrocyanide, 2 mM MgCl2, 1 mg/ml X-gal (5-bromo-4-chloro-3-indolyl-β-D-galactoside).
# mouse embryos = assay: Embryos of pregnant MLC1/3F-nLacZ mice exposed in utero (somitogenesis, muscle gene expression); type: in vivo
# Protocol: MLC1/3F-nLacZ pregnant mice (E 8.5) received intra peritoneal injection of 15 μg of TSA (WAKO chemicals, Neuss Germany) or VPA (Sigma) at E 8.5 and E 9.5 as described in Faiella, A., et al., Hum Mol Genet 9:227-36 (2000), and Nervi, C., et al., Cancer Res 61:1247-9 (2001). VPA was dissolved in distilled water and administered at doses of 6 mg/mice (about 150 μg/ml) every 12 h at E 8.5, E 9, E 9.5, E 10 as described in Faiella et al. (2000). […] Mice were sacrificed at E 10.5, and the embryos were observed under a dissecting stereo-microscope to evaluate their viability, presence of external malformations, and number of somites. Embryos were fixed in 4% paraformaldehyde for histology and X-Gal staining or immunocytochemistry using antibodies against MyoD and myosin heavy chains as described in Tajbakhsh, S., et al., Neuron 13:813-21 (1994).
# DI was administered intraperitoneally to pregnant mice (at a concentration of 0.5 to 1 mg/Kg for TSA and 200 mg/Kg for VPA) at post-implantation stages of E 8.5, and the pregnant mice were sacrificed at 10.5, when MyoD expression is clearly detectable in the myotomes. […] In Table 2, Somites of MLC1/3F-nLacZ mice (injected at day 8.5 and sacrificed at day 10.5) were scored after staining the embryos to detect β-galactosidase activity.
# [1] = i.p. to pregnant mice at E 8.5, sacrificed at 10.5, 0.5 to 1 mg/Kg TSA, 200 mg/Kg VPA
SMILES,Nuclei/MHC-Positive Cells (number of nuclei) (C2C12 cells),percentage of nuclei detected in MHC-positive cells (C2C12 cells),MHC expression and frequency of MHC-positive multinucleated cells (C2C12 cells),β-galactosidase-positive nuclei (MLC3F-lacZ-nls construct),"level of MLC-lacZ transgene expression (mouse embryos; E 10.5 embryos, vs control embryos)","# somites (β-galactosidase staining) (mouse embryos; MLC1/3F-nLacZ mice injected at day 8.5, sacrificed at day 10.5, TSA [1 mg/ml] (20 ul + 380 ul PBS), VPA 155 mM, one value per embryo, PBS controls 25-32)",levels of MHC in exposed embryos (Western blot) (mouse embryos; extracts of total embryos),number of MLC expressing somites (mouse embryos; [1]),number of MyoD expressing myotomes (mouse embryos; [1]),"expression of myogenin and MHC, differentiation (C2C12 cells; C2C12 treated when cultured in DM, 48 hours)",apoptosis (reduced cell density) (C2C12 cells; cells exposed in DM)
"CCCC(CCC)C(=O)O [VPA, valproic acid]",153 and 187,81% and 78%,effects undistinguishable from those exerted by sodium butyrate,increased β-galactosidase-positive nuclei,higher level of MLC-lacZ transgene expression,35 and 36 and 33 and 34,augmented the levels of MHC,consistently increased,consistently increased,–,–
"CCCC(=O)[O-].[Na+] [Sodium Butyrate, sodium butyrate]",230 and 210,83% and 84%,upregulated MHC expression and displayed a striking increased frequency of larger MHC-positive multinucleated cells,–,–,–,–,–,–,failed to activate expression of both myogenin and the myosin heavy chain (MHC) and to properly differentiate,high frequency of apoptosis
